Measurements: PubChem BioAssay AID256 (DTP/NCI, 2004)
Where “and” joins values, the source holds several entries; their conditions need not be identical. Equal entries are not always repeated. Inconclusive results and toxic doses are left out. Rule for the calls: active = survival T/C of 150% or more; inactive = T/C below 125% in these data.

Test system: CD2F1 mice, L1210 leukemia ip, survival T/C
Test: NCI In Vivo Anticancer Drug Screen. Data for tumor model L1210 Leukemia (intraperitoneal) in CD2F1 (CDF1) mice
Settings: endpoint: mean survival time, higher = longer survival
Method in brief: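 Each value reflects a quotient of treated over vehicle control outcomes in mice with a transplanted tumor.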

[1] = dose: 100.0 mg/kg/injection, schedule: Q01DX001 (ip), vehicle: saline
[2] = dose: 200.0 mg/kg/injection, schedule: Q01DX001 (ip), vehicle: saline
[3] = dose: 400.0 mg/kg/injection, schedule: Q01DX001 (ip), vehicle: saline
[4] = dose: 50.0 mg/kg/injection, schedule: Q01DX009 (ip), vehicle: saline with Tween-80
[5] = dose: 100.0 mg/kg/injection, schedule: Q01DX009 (ip), vehicle: saline with Tween-80
[6] = dose: 100.0 mg/kg/injection, schedule: Q01DX001 (ip), vehicle: saline with Tween-80
[7] = dose: 200.0 mg/kg/injection, schedule: Q01DX001 (ip), vehicle: saline with Tween-80
[8] = dose: 100.0 mg/kg/injection, schedule: Q04DX003 (ip), vehicle: saline with Tween-80
[9] = dose: 200.0 mg/kg/injection, schedule: Q04DX003 (ip), vehicle: saline with Tween-80
[10] = dose: 400.0 mg/kg/injection, schedule: Q04DX003 (ip), vehicle: saline with Tween-80
[11] = dose: 100.0 mg/kg/injection, schedule: Q04DX002 (ip), vehicle: saline with Tween-80
[12] = dose: 200.0 mg/kg/injection, schedule: Q04DX002 (ip), vehicle: saline with Tween-80
[13] = dose: 100.0 mg/kg/injection, schedule: Q04DX003 (ip), vehicle: saline
[14] = dose: 200.0 mg/kg/injection, schedule: Q04DX003 (ip), vehicle: saline
[15] = dose: 25.0 mg/kg/injection, schedule: Q04DX003 (ip), vehicle: saline with Tween-80

Measured: T/C

Cc1ccc(-c2noc(C)n2)cc1
inactive: [1] 103 % of control | [2] 105 % of control | [3] 103 % of control

CCCCCCCCCCCCCC#CC(=O)O
inactive: dose: 3.12 mg/kg/injection, schedule: Q01DX009 (ip), vehicle: saline with Tween-80 101 % of control and 109 % of control | dose: 6.25 mg/kg/injection, schedule: Q01DX009 (ip), vehicle: saline with Tween-80 96 % of control and 98 % of control | dose: 12.5 mg/kg/injection, schedule: Q01DX009 (ip), vehicle: saline with Tween-80 91 % of control and 98 % of control | dose: 25.0 mg/kg/injection, schedule: Q01DX009 (ip), vehicle: saline with Tween-80 91 % of control and 98 % of control | [4] 91 % of control and 95 % of control | [5] 88 % of control

Nc1cnc(/C=C/c2ccccc2)nc1
inactive: dose: 75.0 mg/kg/injection, schedule: Q01DX001 (ip), vehicle: other 104 % of control | dose: 150.0 mg/kg/injection, schedule: Q01DX001 (ip), vehicle: other 102 % of control

S=[As](c1ccccc1)(c1ccccc1)c1ccccc1
inactive: [1] 103 % of control | [2] 100 % of control | [3] 91 % of control

CC(C)(O)C#CC#CC(C)(C)O
inactive: [6] 102 % of control | [7] 96 % of control

CC(=O)/C(=N/O)c1ccccc1
inactive: dose: 75.0 mg/kg/injection, schedule: Q01DX009 (ip), vehicle: saline with Tween-80 102 % of control | [8] 102 % of control | dose: 150.0 mg/kg/injection, schedule: Q01DX009 (ip), vehicle: saline with Tween-80 94 % of control | [9] 102 % of control | [10] 94 % of control

CCOC(=O)c1nc(SC)n(C)c1C(=O)OCC
inactive: [11] 94 % of control | [12] 105 % of control

O=[N+]([O-])c1cc(P(=O)(O)O)c(Cl)cc1Cl
inactive: dose: 50.0 mg/kg/injection, schedule: Q04DX003 (ip), vehicle: saline 101 % of control | [13] 90 % of control | [14] 93 % of control

CCCCCOC(=N)CC(=O)C(C)(C)C
inactive: [1] 94 % of control | [2] 94 % of control | [3] 97 % of control

CC1=C(N2CC2)C(=O)c2c(COC(N)=O)c3n(c2C1=O)CCC3OC(N)=O (centres undefined)
inactive: dose: 1.5 mg/kg/injection, schedule: Q01DX001 (ip), vehicle: distilled water + Tween-80 108 % of control | dose: 3.0 mg/kg/injection, schedule: Q01DX001 (ip), vehicle: distilled water + Tween-80 109 % of control and 112 % of control | dose: 6.0 mg/kg/injection, schedule: Q01DX001 (ip), vehicle: distilled water + Tween-80 114 % of control and 121 % of control | dose: 12.0 mg/kg/injection, schedule: Q01DX001 (ip), vehicle: distilled water + Tween-80 120 % of control | dose: 48.0 mg/kg/injection, schedule: Q01DX001 (ip), vehicle: distilled water + Tween-80 120 % of control

CCCN(CCC)CC(=O)c1ccc2cc(Br)c3ccccc3c2c1
inactive: [13] 92 % of control | [14] 91 % of control | dose: 400.0 mg/kg/injection, schedule: Q04DX003 (ip), vehicle: saline 89 % of control

OC1c2ccccc2CCc2ccccc21
inactive: [15] 97 % of control | dose: 50.0 mg/kg/injection, schedule: Q04DX003 (ip), vehicle: saline with Tween-80 103 % of control | [8] 101 % of control

O=C1C=CC(=O)c2ccccc21
inactive: dose: 1.0 mg/kg/injection, schedule: Q01DX009 (ip), vehicle: Klucel (hydroxypropylcellulose) (HPC) 94 % of control | dose: 1.25 mg/kg/injection, schedule: Q04DX003 (ip), vehicle: saline with Tween-80 104 % of control | dose: 2.0 mg/kg/injection, schedule: Q01DX009 (ip), vehicle: Klucel (hydroxypropylcellulose) (HPC) 102 % of control | dose: 2.5 mg/kg/injection, schedule: Q04DX003 (ip), vehicle: saline with Tween-80 95 % of control | dose: 4.0 mg/kg/injection, schedule: Q01DX009 (ip), vehicle: Klucel (hydroxypropylcellulose) (HPC) 102 % of control

O=C(O)c1c(F)c(F)c2c(F)c(F)c(F)c(F)c2c1F
inactive: [8] 93 % of control | [9] 92 % of control

COc1ccc2nc3cc(Cl)ccc3c(Nc3cccc(NC(C)=O)c3)c2n1
inactive: dose: 25.0 mg/kg/injection, schedule: Q01DX009 (ip), vehicle: other 102 % of control | dose: 50.0 mg/kg/injection, schedule: Q01DX009 (ip), vehicle: other 96 % of control | dose: 100.0 mg/kg/injection, schedule: Q01DX009 (ip), vehicle: other 86 % of control

CCCc1ccc(OC)cc1
inactive: [4] 103 % of control | [5] 97 % of control | [8] 98 % of control | [9] 94 % of control

Cc1[nH]c2ccc(-c3ccccc3)cc2c1CC(=O)OC(C)C
inactive: [11] 97 % of control | [12] 117 % of control | dose: 400.0 mg/kg/injection, schedule: Q04DX002 (ip), vehicle: saline with Tween-80 105 % of control

OC1(c2c(F)c(F)c(F)c(F)c2F)C2CCC1CC2 (centres undefined)
inactive: dose: 37.5 mg/kg/injection, schedule: Q04DX002 (ip), vehicle: saline with Tween-80 98 % of control | dose: 75.0 mg/kg/injection, schedule: Q04DX002 (ip), vehicle: saline with Tween-80 110 % of control | dose: 150.0 mg/kg/injection, schedule: Q04DX002 (ip), vehicle: saline with Tween-80 98 % of control | dose: 300.0 mg/kg/injection, schedule: Q04DX002 (ip), vehicle: saline with Tween-80 102 % of control

O=c1ccn(C2OC(CO)C(O)C2O)c(C2SCCCS2)n1 (centres undefined)
inactive: dose: 9.38 mg/kg/injection, schedule: Q01DX005 (ip), vehicle: water 90 % of control | dose: 18.75 mg/kg/injection, schedule: Q01DX005 (ip), vehicle: water 93 % of control | dose: 37.5 mg/kg/injection, schedule: Q01DX005 (ip), vehicle: water 93 % of control | dose: 75.0 mg/kg/injection, schedule: Q01DX005 (ip), vehicle: water 96 % of control | dose: 150.0 mg/kg/injection, schedule: Q01DX005 (ip), vehicle: water 96 % of control

CN(C)S(=O)(=O)c1ccccc1C1(O)c2ccccc2-c2ccccc21
inactive: [4] 87 % of control | [5] 87 % of control | [8] 93 % of control | [9] 86 % of control

CN(C=O)c1cc2c3c(c1)CCCN3CCC2
inactive: [4] 100 % of control | [6] 105 % of control | [7] 104 % of control

CO[C@]12[C@@H](COC(N)=O)C3=C(C(=O)C(C)=C(NCCCO)C3=O)N1C[C@@H]1[C@H]2N1C (some centres undefined)
inactive: dose: 1.5 mg/kg/injection, schedule: Q01DX001 (ip), vehicle: water 101 % of control | dose: 3.0 mg/kg/injection, schedule: Q01DX001 (ip), vehicle: water 101 % of control | dose: 6.0 mg/kg/injection, schedule: Q01DX001 (ip), vehicle: water 102 % of control | dose: 12.0 mg/kg/injection, schedule: Q01DX001 (ip), vehicle: water 107 % of control | dose: 18.75 mg/kg/injection, schedule: Q01DX001 (ip), vehicle: distilled water + Tween-80 104 % of control | dose: 24.0 mg/kg/injection, schedule: Q01DX001 (ip), vehicle: water 101 % of control | dose: 36.0 mg/kg/injection, schedule: Q01DX001 (ip), vehicle: water 102 % of control | dose: 37.5 mg/kg/injection, schedule: Q01DX001 (ip), vehicle: distilled water + Tween-80 107 % of control | dose: 75.0 mg/kg/injection, schedule: Q01DX001 (ip), vehicle: distilled water + Tween-80 107 % of control | dose: 150.0 mg/kg/injection, schedule: Q01DX001 (ip), vehicle: distilled water + Tween-80 116 % of control

OCCN1CCN(CCO)CC1.[Cl][Pt+2][Cl]
inactive: [15] 101 % of control | [8] 97 % of control | [9] 94 % of control

Clc1cccc(-c2nc3ccccc3c3ccccc23)c1
inactive: [8] 93 % of control | [10] 98 % of control

NC(CO)(CO)CO
inactive: dose: 100.0 mg/kg/injection, schedule: Q01DX009 (ip), vehicle: saline 98 % of control | dose: 200.0 mg/kg/injection, schedule: Q01DX009 (ip), vehicle: saline 93 % of control | dose: 400.0 mg/kg/injection, schedule: Q01DX009 (ip), vehicle: saline 100 % of control

Cc1nc(N=C(N)N)nc2ccc(Cl)cc12
inactive: dose: 18.8 mg/kg/injection, schedule: Q01DX009 (ip), vehicle: saline 97 % of control

COc1ccc(C(O)(c2ccccc2)C(OC(=O)CCl)c2ccccc2)cc1 (centres undefined)
inactive: [7] 91 % of control | dose: 400.0 mg/kg/injection, schedule: Q01DX001 (ip), vehicle: saline with Tween-80 89 % of control
